Results published in PMC5606850, “Acidic C-terminal domains autoregulate the RNA chaperone Hfq” (eLife, 2017).

Experiments:
Target-A18 = experiment: RNA annealing kinetics (molecular beacon with Target-A18), stopped-flow fluorescence; format: biochemical; settings: 50 nM molecular beacon, 100 nM Target-A18, 0–200 nM Hfq hexamer, 30 °C
Procedure: (§1) Figure 4. Shortening the CTD increases auto-inhibition by acidic residues. (A) Observed annealing rate constants for 100 nM target RNA and 50 nM molecular beacon with 0–200 nM Hfq hexamer at 30°C, measured by stopped-flow fluorescence. Black, Hfq102; red, Hfq-sCTD; cyan, Hfq65. (B) Fluorescence anisotropy assay for RNA binding and release. In stopped-flow FRET experiments, the dsRNA is released after pairing with its complementary strand ([Panja et al., 2013]; [Santiago-Frangos et al., 2016]). […] Remaining RNA was displaced from Hfq by excess ssDNA (400 nM DNA2). The averages and standard deviations for three trials are plotted for each Hfq variant. […] (D) Annealing of 5 nM ^32P-ChiX sRNA with 30 nM chiP mRNA without Hfq, or with Hfq65, Hfq102 or Hfq-sCTD, as indicated above each lane. Samples were loaded on a native polyacrylamide gel 60 min or 20 s after the components were mixed. […] (E) Fractions of free ChiX (black), ChiX·chiP dsRNA (light grey), ChiX·Hfq·chiP ternary complex (hatched) and ChiX·Hfq binary complex (dark grey) after 4 min of annealing, as analyzed by EMSA (Figure 4—figure supplement 2). […] Annealing of 100 nM Target RNA to 50 nM beacon RNA by Hfq variants was measured by stopped flow fluorescence at 30°C in 1 × TNK buffer. […] The change in fluorescence emission intensity was normalized to the maximum fluorescence within an experiment. […]

ChiX sRNA and chiP mRNA = experiment: ChiX sRNA-chiP mRNA annealing, EMSA; format: biochemical, E. coli; settings: 10 °C; for time to form ternary complex with ChiX and chiP: 5 nM ChiX, 30 nM chiP; for stability of ChiX·Hfq·chiP ternary complex: 33.3 nM Hfq hexamer, TNK buffer
Procedure: Figure 4. Shortening the CTD increases auto-inhibition by acidic residues. (A) Observed annealing rate constants for 100 nM target RNA and 50 nM molecular beacon with 0–200 nM Hfq hexamer at 30°C, measured by stopped-flow fluorescence. Black, Hfq102; red, Hfq-sCTD; cyan, Hfq65. (B) Fluorescence anisotropy assay for RNA binding and release. In stopped-flow FRET experiments, the dsRNA is released after pairing with its complementary strand ([Panja et al., 2013]; [Santiago-Frangos et al., 2016]). […] Remaining RNA was displaced from Hfq by excess ssDNA (400 nM DNA2). The averages and standard deviations for three trials are plotted for each Hfq variant. […] (D) Annealing of 5 nM ^32P-ChiX sRNA with 30 nM chiP mRNA without Hfq, or with Hfq65, Hfq102 or Hfq-sCTD, as indicated above each lane. Samples were loaded on a native polyacrylamide gel 60 min or 20 s after the components were mixed. Full gel images are in Figure 4—figure supplement 2. (E) Fractions of free ChiX (black), ChiX·chiP dsRNA (light grey), ChiX·Hfq·chiP ternary complex (hatched) and ChiX·Hfq binary complex (dark grey) after 4 min of annealing, as analyzed by EMSA (Figure 4—figure supplement 2). Figure 4—figure supplement 1. Effect of CTD length on RNA oligomer annealing kinetics. Annealing of 100 nM Target RNA to 50 nM beacon RNA by Hfq variants was measured by stopped flow fluorescence at 30°C in 1 × TNK buffer. (A) Target RNA annealed by Hfq65 (no CTD), Hfq102 (complete CTD) or Hfq-sCTD (shortened linker CTD). (B) Target-U6 (proximal) annealed by Hfq65, Hfq102 or Hfq-sCTD. (C) Target-A18 annealed Hfq65, Hfq102 or Hfq-sCTD. The change in fluorescence emission intensity was normalized to the maximum fluorescence within an experiment. The average of five measurements is shown per progress curve. Annealing data were also collected for 0–200 nM Hfq hexamer. All progress curves were fitted to single- or double-exponential rate equations to obtain kobs, as previously described ([Santiago-Frangos et al., 2016]). [drawing 7] Figure 4—figure supplement 2. Effect of CTD length on sRNA·mRNA annealing. EMSAs of the annealing of 5 nM ^32P-ChiX to 30 nM chiP ([Rasmussen et al., 2009]) at 10°C in 1 × TNK buffer. Reactions were done (A) without Hfq, or with 33.3 nM hexamer (B) Hfq102, (C) Hfq65 or (D) Hfq-sCTD, Control reactions with ChiX only, ChiX and chiP mRNA, ChiX and Hfq or three components were loaded at the beginning (left) and end (right) of each time course, as indicated above the lanes. In the absence of Hfq, only 20% of ChiX·chiP annealed after 30 min. In the presence of all Hfq variants, at least 50% ChiX was in a ternary complex containing ChiX·Hfq·chiP within 1 min, and annealing reached a plateau within 2 min.
To determine whether the above results on RNA oligomers apply to natural RNA substrates for Hfq, we examined the annealing of the Class II sRNA ChiX to the mRNA chiP via electrophoretic mobility shift assays (EMSAs). Because the mRNA targets of class II sRNAs interact with the rim of Hfq ([Schu et al., 2015]; [Małecka et al., 2015]), we reasoned that this sRNA-mRNA pair would be sensitive to displacement by the CTD. Low nanomolar amounts of ChiX and chiP anneal very slowly at 10°C, in the absence of Hfq (Figure 4—figure supplement 2). Whereas, Hfq102, Hfq65 and Hfq-sCTD all form a ternary complex with ChiX and chiP within 20 s (Figure 4D), reaching equilibrium in a few minutes (Figure 4—figure supplement 2). […] Less ternary complex was formed by Hfq102, and the least by Hfq-sCTD.

D16-FAM·R16 = experiment: anisotropy time-course of D16-FAM·R16 binding, annealing and release; format: biochemical; settings: 50 nM D16-FAM, 50 nM Hfq hexamer, then 50 nM R16, TNK buffer, 30 °C, three trials
Procedure: as §1

Substance | annealing acceleration for Target-A18 compared to no Hfq (Target-A18) | time to form ternary complex with ChiX and chiP (ChiX sRNA and chiP mRNA) [s] | stability of ChiX·Hfq·chiP ternary complex (ChiX sRNA and chiP mRNA) | ChiX-Hfq binary complex remaining (ChiX sRNA and chiP mRNA; after 20 s) | release of annealed dsRNA (D16-FAM·R16) from Hfq (D16-FAM·R16)
Hfq65: truncated E. coli Hfq variant lacking the CTD | roughly 100 fold | ≤ 20 | most stable | almost no ChiX-Hfq65 binary complex remaining after 20 s | a large proportion of the dsRNA remained bound to Hfq65
Hfq102: full-length E. coli Hfq | roughly 100 fold | ≤ 20 | medium | – | most of the annealed dsRNA dissociated from Hfq102
